According to EP1148783B1, “CONVERTING COX INHIBITION COMPOUNDS THAT ARE NOT COX-2 SELECTIVE INHIBITORS TO DERIVATIVES THAT ARE COX-2 SELECTIVE INHIBITORS” (priority 1999, dated 2000):
Residue numbers refer to the chain shown, from its start. pIC50: −log10 of the molar value. Like-named read-outs stand apart in the source and are kept apart here.

Legend:
COX-2 [1] = biological target: T1, COX-2 (Homo sapiens, UniProt P35354); assay: TLC assay of cyclooxygenase inhibition, purified human COX-2; type: biochemical
T1 sequence (P35354 18-604): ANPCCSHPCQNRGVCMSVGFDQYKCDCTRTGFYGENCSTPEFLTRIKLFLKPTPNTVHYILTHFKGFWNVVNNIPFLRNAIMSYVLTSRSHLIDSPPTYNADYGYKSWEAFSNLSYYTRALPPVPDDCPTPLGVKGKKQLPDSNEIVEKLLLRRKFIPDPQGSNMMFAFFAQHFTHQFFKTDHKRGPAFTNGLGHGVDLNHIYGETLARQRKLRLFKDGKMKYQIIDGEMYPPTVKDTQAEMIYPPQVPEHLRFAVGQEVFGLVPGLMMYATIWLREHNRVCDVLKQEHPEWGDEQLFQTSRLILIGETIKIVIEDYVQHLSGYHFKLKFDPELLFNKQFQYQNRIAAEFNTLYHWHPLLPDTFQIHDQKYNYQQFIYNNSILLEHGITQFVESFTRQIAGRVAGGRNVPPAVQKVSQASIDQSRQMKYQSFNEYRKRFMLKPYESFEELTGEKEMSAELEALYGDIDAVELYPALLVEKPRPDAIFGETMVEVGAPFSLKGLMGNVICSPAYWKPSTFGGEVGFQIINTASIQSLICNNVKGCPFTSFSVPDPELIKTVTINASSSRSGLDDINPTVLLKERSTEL

rat foot pad edema = assay: Rat foot pad edema model (carrageenan); type: in vivo, male Sprague-Dawley rats; conditions: 2 mg/kg orally, corrected for 0.1 mL injection volume
Experimental: Rats were injected with carrageenan, which triggers a rapid edema (swelling) within 3 hours that can be quantitatively measured by volume displacement.
In these experiments, the carrageenan that was injected was in 0.1 mL of aqueous saline so that 0.1 mL volume increase was due to the injection alone. […] More specifically, male Sprague-Dawley rats (150 g) received a subplantar injection of carrageenan (0.1 mL of a 1% suspension of carrageenan in sterile aqueous saline) into the right hind footpad while mildly anesthetized with methoxyflurane. […] The ipsilateral footpad volume (mL) was measured with a water displacement plethysmometer at time = 3 hours post-injection and compared to the time = 0 pre-injection paw volume for edema calculations.

[2] = biological target: T2, murine COX-2 mutant Tyr341Ala (Mus musculus, UniProt Q05769, Y341A)
T2 sequence (Q05769 18-604 Y341A): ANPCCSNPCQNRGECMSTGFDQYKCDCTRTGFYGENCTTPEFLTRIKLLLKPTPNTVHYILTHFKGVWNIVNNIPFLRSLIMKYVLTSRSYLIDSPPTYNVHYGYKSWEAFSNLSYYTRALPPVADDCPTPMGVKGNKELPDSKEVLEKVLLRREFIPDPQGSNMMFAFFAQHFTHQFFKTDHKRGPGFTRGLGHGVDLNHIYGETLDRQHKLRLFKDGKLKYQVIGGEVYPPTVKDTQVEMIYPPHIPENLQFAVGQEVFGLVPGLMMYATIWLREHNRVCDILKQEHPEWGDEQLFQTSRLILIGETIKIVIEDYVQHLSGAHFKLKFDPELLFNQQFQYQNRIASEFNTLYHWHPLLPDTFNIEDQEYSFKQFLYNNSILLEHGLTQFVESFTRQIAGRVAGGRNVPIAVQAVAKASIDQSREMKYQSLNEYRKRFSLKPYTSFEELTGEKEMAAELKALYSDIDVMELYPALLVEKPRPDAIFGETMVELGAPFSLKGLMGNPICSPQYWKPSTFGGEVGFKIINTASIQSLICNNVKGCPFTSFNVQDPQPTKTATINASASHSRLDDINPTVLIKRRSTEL

[3] = biological target: T3, Val509lleArg499HisVal420lle mutant (VRV mutant) (Mus musculus, UniProt Q05769, R499H/V420I/V509I)
T3 sequence (Q05769 18-604 V420I/R499H/V509I): T2 sequence (Q05769 18-604 Y341A) with A324Y, V403I, R482H, V492I

ovine COX-1 = biological target: T4, ovine COX-1 (Ovis aries, UniProt P05979); assay: TLC assay of cyclooxygenase inhibition, purified ovine COX-1; type: biochemical; conditions: Table 2, amide derivatives; ovine COX-1 (44 nM), 20 min, 1-14C-AA at 37°C for 30 sec
T4 construct: COX-1 was purified from ram seminal vesicles obtained from Oxford Biomedical Research, Inc; tissue Oxford Biomedical Research, Inc. (Oxford, Michigan); host or cells: ram seminal vesicles
T4 sequence (P05979 25-600): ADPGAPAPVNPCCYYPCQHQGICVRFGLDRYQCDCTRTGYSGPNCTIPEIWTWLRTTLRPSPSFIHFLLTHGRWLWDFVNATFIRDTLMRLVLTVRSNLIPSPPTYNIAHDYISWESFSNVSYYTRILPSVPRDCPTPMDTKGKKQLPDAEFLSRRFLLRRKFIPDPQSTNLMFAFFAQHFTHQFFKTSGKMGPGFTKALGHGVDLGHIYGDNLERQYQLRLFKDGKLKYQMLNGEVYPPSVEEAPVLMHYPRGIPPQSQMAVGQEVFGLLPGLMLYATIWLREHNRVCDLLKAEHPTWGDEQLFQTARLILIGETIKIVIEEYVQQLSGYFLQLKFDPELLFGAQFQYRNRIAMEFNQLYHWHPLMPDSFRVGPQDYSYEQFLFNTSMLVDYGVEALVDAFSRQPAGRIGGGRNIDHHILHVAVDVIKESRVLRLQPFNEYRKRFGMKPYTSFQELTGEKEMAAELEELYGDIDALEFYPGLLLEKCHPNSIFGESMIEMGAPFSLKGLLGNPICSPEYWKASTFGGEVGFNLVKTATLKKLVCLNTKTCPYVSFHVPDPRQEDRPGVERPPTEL

COX-1 = COX-1 (Homo sapiens, UniProt P23219); conditions: background / literature statement; cited from earlier work
Sequence of COX-1 (P23219 24-599): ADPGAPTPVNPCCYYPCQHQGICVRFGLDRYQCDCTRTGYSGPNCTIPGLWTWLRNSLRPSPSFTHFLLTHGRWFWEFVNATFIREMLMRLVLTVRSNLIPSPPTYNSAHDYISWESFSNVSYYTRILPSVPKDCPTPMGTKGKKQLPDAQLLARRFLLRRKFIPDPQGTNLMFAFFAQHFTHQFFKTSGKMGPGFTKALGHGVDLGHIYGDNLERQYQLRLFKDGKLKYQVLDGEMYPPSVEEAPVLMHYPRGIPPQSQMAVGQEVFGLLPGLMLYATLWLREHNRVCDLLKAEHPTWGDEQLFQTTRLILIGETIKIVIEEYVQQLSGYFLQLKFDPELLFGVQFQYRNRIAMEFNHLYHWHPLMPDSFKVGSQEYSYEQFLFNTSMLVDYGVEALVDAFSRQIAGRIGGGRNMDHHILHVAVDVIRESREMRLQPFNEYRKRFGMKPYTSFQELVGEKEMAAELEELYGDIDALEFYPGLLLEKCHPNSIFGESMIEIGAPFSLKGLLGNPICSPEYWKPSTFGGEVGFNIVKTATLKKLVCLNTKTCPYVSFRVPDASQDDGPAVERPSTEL

COX-2 [4] = biological target: T1, COX-2; conditions: background / literature statement; cited from earlier work

## Cc1nc(-c2ccccc2)c(-c2ccc(S(N)(=O)=O)cc2)o1 [2-methyl-4-phenyl-5-sulfonamidophenyl oxazole, reference compound]
COX-2 [1]; Table 1, ester derivatives, Ratio of IC50 (COX-1):IC50 (COX-2)
  Selectivity: > 1100

## COc1ccc2c(c1)c(CC(=O)O)c(C)n2C(=O)c1ccc(Cl)cc1 [Compound 1, Indomethacin]
Rat foot pad edema
  reduction in inflammation: comparable reduction in inflammation

## COc1ccc2c(c1)c(CC(=O)OCCC1CCCCC1)c(C)n2C(=O)c1ccc(Cl)cc1 [Compound 10, Indomethacin cyclohexylethyl ester]
COX-2 [1]; tertiary amides
  IC value at which measurement of COX-2 inhibition was stopped: 33

## COc1ccc2c(c1)c(CC(=O)NCCc1ccccc1)c(C)n2C(=O)c1ccc(Cl)cc1 [Compound 38, Indomethacin-N-(2-phenethyl) amide]
[2]
  inhibition of Tyr341Ala mutant: resistant to inhibition
[3]
  inhibition of triple mutant VRV: resistant to inhibition

## COc1ccc2c(c1)c(CC(=O)Nc1ccc(F)cc1)c(C)n2C(=O)c1ccc(Cl)cc1 [Compound 39, Indomethacin-N-(4-fluorophenyl) amide]
Ovine COX-1
  IC50: > 66 µM

## COc1ccc2c(c1)c(CC(=O)Nc1cccnc1)c(C)n2C(=O)c1ccc(Cl)cc1 [Compound 47, Indomethacin-N-(3-pyridyl) amide]
Ovine COX-1
  IC50: > 66 µM

## CCn1nccc1NC(=O)Cc1c(C)n(C(=O)c2ccc(Cl)cc2)c2ccc(OC)cc12 [Compound 49, Indomethacin-N-5-((1-ethyl)pyrazolo) amide]
COX-2 [1]
  pIC50: 6.15
  Selectivity: > 94

## CC1=C(CC(=O)O)c2cc(F)ccc2/C1=C\c1ccc(S(C)(=O)=O)cc1 [sulindac sulfone]
COX-1
  inhibition of COX-1 (in words): does not inhibit
COX-2 [4]
  inhibition of COX-2 (in words): does not inhibit

## Indomethacin 3-pyridyl ester [Compound 24]
COX-2 [1]
  Selectivity: 50
